Assays:
Assay in all cases: relative viability (nuclei count vs DMSO), 5 days (fraction); higher = more cells survive
IDH-C35 + Lapatinib = compound: Cc1ccccc1C(C(=O)NC1CCCCC1)N(C(=O)Cn1ccnc1C)c1cccc(F)c1 [IDH-C35] + CS(=O)(=O)CCNCc1ccc(-c2ccc3ncnc(Nc4ccc(OCc5cccc(F)c5)c(Cl)c4)c3c2)o1 [Lapatinib] (partner 2 µM)
Outline: (§1)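 Lung cancer cell lines in 1536-well plates got either a single drug or a fixed anchor-drug dose together with five library-drug doses (not always all listed) in √10 steps, by pin tool, on the day after seeding. Nuclei were counted after 5 days, and relative viability is the treated-to-vehicle ratio of nuclei counts. Values are medians of duplicate plates.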

IDH-C35 + Bortezomib = compound: Cc1ccccc1C(C(=O)NC1CCCCC1)N(C(=O)Cn1ccnc1C)c1cccc(F)c1 [IDH-C35] + CC(C)C[C@H](NC(=O)[C@H](Cc1ccccc1)NC(=O)c1cnccn1)B(O)O [Bortezomib] (partner 0.002 µM)
Outline: as §1

[1] = compound: CC1=C(C(=NN1)C)CC2=C(C3=C(S2)N(C(=O)N(C3=O)C)CC(C)C)C(=O)N4C[C@@H](CO4)O + Cc1cc(Nc2cc(N3CCN(C)CC3)nc(Sc3ccc(NC(=O)C4CC4)cc3)n2)n[nH]1 [Tozasertib] (partner 0.1 µM)
Outline: as §1

[2] = compound: CC1=C(C(=NN1)C)CC2=C(C3=C(S2)N(C(=O)N(C3=O)C)CC(C)C)C(=O)N4C[C@@H](CO4)O + N=C(N)NC(=N)NCCc1ccccc1 [Phenformin] (partner 250 µM)
Outline: as §1

| Cell Line | relative viability (IDH-C35 + Lapatinib; first compound 0.08 µM) | relative viability (IDH-C35 + Lapatinib; first compound 0.253 µM) | relative viability (IDH-C35 + Lapatinib; first compound 0.8 µM) | relative viability (IDH-C35 + Lapatinib; first compound 2.53 µM) | relative viability (IDH-C35 + Lapatinib; first compound 8 µM) | relative viability (IDH-C35 + Bortezomib; first compound 0.08 µM) | relative viability (IDH-C35 + Bortezomib; first compound 0.253 µM) | relative viability (IDH-C35 + Bortezomib; first compound 0.8 µM) | relative viability (IDH-C35 + Bortezomib; first compound 2.53 µM) | relative viability (IDH-C35 + Bortezomib; first compound 8 µM) | relative viability ([1]; first compound 0.0025 µM) | relative viability ([1]; first compound 0.007906 µM) | relative viability ([1]; first compound 0.025 µM) | relative viability ([1]; first compound 0.07906 µM) | relative viability ([1]; first compound 0.25 µM) | relative viability ([2]; first compound 0.0025 µM) | relative viability ([2]; first compound 0.007906 µM) | relative viability ([2]; first compound 0.025 µM) | relative viability ([2]; first compound 0.07906 µM) | relative viability ([2]; first compound 0.25 µM) |
| --- | --- | --- | --- | --- | --- | --- | --- | --- | --- | --- | --- | --- | --- | --- | --- | --- | --- | --- | --- | --- |
| 201T | 1.05 | 1.04 | 1.02 | 0.973 | 1.01 | 1.09 | 1.1 | 1.08 | 1.09 | 1.09 | 1.05 | 0.92 | 0.915 | 0.904 | 1.03 | 0.468 | 0.383 | 0.426 | 0.472 | 0.426 |
| A549 | 0.956 | 1 | 0.988 | 0.947 | 1.03 |  |  |  |  |  |  |  |  |  |  | 0.116 | 0.0979 | 0.151 | 0.161 | 0.168 |
| A-427 | 1.03 | 0.978 | 0.942 | 1.02 | 1.03 | 0.977 | 1.04 | 1.01 | 0.934 | 0.952 | 0.189 | 0.188 | 0.215 | 0.227 | 0.237 | 0.301 | 0.264 | 0.24 | 0.375 | 0.349 |
| ABC-1 | 1.3 | 1 | 1.03 | 1.16 | 1.06 | 0.391 | 0.306 | 0.299 | 0.339 | 0.362 | 0.197 | 0.196 | 0.216 | 0.19 | 0.255 | 0.18 | 0.174 | 0.173 | 0.186 | 0.214 |
| BEN | 0.796 | 0.805 | 0.724 | 0.718 | 0.865 | 0.897 | 0.921 | 0.799 | 0.881 | 0.936 | 0.495 | 0.563 | 0.586 | 0.457 | 0.52 | 0.223 | 0.166 | 0.221 | 0.18 | 0.206 |
| CAL-12T | 0.655 | 0.578 | 0.728 | 0.749 | 0.7 | 0.975 | 0.863 | 1.03 | 1.05 | 0.85 | 0.334 | 0.315 | 0.366 | 0.332 | 0.304 | 0.551 | 0.627 | 0.544 | 0.629 | 0.575 |
| COR-L23 | 1.05 | 1.09 | 0.932 | 1 | 0.938 | 0.927 | 0.995 | 1.01 | 0.983 | 0.909 | 0.155 | 0.163 | 0.172 | 0.18 | 0.163 | 0.397 | 0.395 | 0.342 | 0.355 | 0.344 |
| COR-L 105 | 0.33 | 0.359 | 0.337 | 0.34 | 0.369 | 0.902 | 0.943 | 0.752 | 0.66 | 0.489 | 0.343 | 0.355 | 0.369 | 0.27 | 0.328 | 0.34 | 0.324 | 0.231 | 0.279 | 0.244 |
| Calu-6 | 1.04 | 1.04 | 1.03 | 1.06 | 1.01 | 0.971 | 1 | 1.04 | 1.07 | 0.955 |  |  |  |  |  |  |  |  |  |  |
| ChaGo-K-1 |  |  |  |  |  | 0.956 | 0.942 | 1.09 | 0.939 | 1.03 | 0.232 | 0.214 | 0.235 | 0.206 | 0.228 | 0.467 | 0.451 | 0.407 | 0.447 | 0.47 |
| EBC-1 | 0.24 | 0.228 | 0.24 | 0.232 | 0.236 | 0.544 | 0.575 | 0.493 | 0.613 | 0.506 |  |  |  |  |  |  |  |  |  |  |
| EKVX | 0.201 | 0.205 | 0.208 | 0.183 | 0.205 | 1.18 | 0.995 | 0.995 | 1.04 | 0.993 | 0.398 | 0.404 | 0.432 | 0.394 | 0.422 | 0.241 | 0.224 | 0.233 | 0.243 | 0.227 |
| EMC-BAC-2 | 0.916 | 0.86 | 0.868 | 0.895 | 0.955 | 1.01 | 1.08 | 1.13 | 1.09 | 1.11 | 0.268 | 0.296 | 0.272 | 0.3 | 0.317 | 0.538 | 0.548 | 0.518 | 0.478 | 0.601 |
| EPLC-272H | 1.21 | 1.04 | 0.912 |  | 0.802 | 0.906 | 0.962 | 1.05 |  | 0.856 | 0.267 | 0.227 | 0.324 | 0.259 | 0.609 | 0.362 | 0.272 | 0.281 | 0.298 | 0.361 |
| H3255 | 0.246 | 0.244 | 0.283 | 0.304 | 0.414 | 0.682 | 0.856 | 0.816 | 0.863 | 1.05 | 0.803 | 0.768 | 0.657 | 0.56 | 0.59 | 0.338 | 0.368 | 0.364 | 0.389 | 0.39 |

From the supplement of paper PMC10307832
